Experimental findings from ChEMBL document CHEMBL5518197, “Recent advances in the development of deubiquitinases inhibitors as antitumor agents” (Eur J Med Chem, 2024) are described below.

One test has as its target T1, Caspase-3 (Homo sapiens, UniProt P42574).
T1 sequence (P42574 whole entry): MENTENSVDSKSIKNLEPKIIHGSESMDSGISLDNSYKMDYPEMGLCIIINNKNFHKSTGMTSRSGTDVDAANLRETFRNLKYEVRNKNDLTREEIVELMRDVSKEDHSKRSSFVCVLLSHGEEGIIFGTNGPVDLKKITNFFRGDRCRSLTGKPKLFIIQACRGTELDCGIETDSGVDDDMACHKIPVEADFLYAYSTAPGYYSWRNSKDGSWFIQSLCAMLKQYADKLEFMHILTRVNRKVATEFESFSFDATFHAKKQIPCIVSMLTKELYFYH
Briefly: Inhibition of caspase-3 (unknown origin) by microplate reader analysis.

Test [1] deals with T2, Ubiquitin carboxyl-terminal hydrolase 28 (Homo sapiens, UniProt Q96RU2).
T2 sequence (Q96RU2 whole entry): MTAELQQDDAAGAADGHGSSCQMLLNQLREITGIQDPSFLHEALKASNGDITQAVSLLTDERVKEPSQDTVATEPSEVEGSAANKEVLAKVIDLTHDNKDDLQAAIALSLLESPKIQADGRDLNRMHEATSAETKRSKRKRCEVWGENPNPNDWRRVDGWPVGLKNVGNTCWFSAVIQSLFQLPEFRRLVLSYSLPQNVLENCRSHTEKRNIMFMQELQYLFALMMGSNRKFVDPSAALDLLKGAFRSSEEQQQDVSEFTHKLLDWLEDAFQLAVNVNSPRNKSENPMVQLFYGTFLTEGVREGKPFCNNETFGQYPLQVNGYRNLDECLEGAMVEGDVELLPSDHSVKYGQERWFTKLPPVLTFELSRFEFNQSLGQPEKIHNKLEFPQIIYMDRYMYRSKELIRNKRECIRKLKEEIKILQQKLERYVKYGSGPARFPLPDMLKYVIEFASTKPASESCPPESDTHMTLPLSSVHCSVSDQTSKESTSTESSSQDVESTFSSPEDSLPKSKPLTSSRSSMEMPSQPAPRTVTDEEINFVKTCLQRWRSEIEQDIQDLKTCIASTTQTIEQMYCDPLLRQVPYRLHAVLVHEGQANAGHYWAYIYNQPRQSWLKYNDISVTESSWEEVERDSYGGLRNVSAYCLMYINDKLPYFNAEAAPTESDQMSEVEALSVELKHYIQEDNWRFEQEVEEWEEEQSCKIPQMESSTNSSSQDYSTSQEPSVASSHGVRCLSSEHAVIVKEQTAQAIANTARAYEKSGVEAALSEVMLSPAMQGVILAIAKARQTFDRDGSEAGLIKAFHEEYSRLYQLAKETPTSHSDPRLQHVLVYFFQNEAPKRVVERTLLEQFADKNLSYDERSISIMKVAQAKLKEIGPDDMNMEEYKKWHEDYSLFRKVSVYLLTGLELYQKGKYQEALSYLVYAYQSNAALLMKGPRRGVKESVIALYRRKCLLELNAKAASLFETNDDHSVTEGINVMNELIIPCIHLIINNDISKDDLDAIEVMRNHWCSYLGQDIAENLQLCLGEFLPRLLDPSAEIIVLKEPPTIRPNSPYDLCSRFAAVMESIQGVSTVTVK
Briefly: Inhibition of USP28 (unknown origin).

Another test deals with HCT-116. Put plainly: Antiproliferative activity against human HCT-116 cells assessed as reduction in cell viability incubated for 48 hrs by MTT assay. Type of test: functional, cell-based. As to conditions: HCT-116, 48 h. Background: Tetrazolium assays rely on reduction of a dye to a coloured formazan, in cell work by metabolically active cells.
The target of test [2] is T3, Ubiquitin carboxyl-terminal hydrolase 19 (Homo sapiens, UniProt O94966).
T3 sequence (O94966 whole entry): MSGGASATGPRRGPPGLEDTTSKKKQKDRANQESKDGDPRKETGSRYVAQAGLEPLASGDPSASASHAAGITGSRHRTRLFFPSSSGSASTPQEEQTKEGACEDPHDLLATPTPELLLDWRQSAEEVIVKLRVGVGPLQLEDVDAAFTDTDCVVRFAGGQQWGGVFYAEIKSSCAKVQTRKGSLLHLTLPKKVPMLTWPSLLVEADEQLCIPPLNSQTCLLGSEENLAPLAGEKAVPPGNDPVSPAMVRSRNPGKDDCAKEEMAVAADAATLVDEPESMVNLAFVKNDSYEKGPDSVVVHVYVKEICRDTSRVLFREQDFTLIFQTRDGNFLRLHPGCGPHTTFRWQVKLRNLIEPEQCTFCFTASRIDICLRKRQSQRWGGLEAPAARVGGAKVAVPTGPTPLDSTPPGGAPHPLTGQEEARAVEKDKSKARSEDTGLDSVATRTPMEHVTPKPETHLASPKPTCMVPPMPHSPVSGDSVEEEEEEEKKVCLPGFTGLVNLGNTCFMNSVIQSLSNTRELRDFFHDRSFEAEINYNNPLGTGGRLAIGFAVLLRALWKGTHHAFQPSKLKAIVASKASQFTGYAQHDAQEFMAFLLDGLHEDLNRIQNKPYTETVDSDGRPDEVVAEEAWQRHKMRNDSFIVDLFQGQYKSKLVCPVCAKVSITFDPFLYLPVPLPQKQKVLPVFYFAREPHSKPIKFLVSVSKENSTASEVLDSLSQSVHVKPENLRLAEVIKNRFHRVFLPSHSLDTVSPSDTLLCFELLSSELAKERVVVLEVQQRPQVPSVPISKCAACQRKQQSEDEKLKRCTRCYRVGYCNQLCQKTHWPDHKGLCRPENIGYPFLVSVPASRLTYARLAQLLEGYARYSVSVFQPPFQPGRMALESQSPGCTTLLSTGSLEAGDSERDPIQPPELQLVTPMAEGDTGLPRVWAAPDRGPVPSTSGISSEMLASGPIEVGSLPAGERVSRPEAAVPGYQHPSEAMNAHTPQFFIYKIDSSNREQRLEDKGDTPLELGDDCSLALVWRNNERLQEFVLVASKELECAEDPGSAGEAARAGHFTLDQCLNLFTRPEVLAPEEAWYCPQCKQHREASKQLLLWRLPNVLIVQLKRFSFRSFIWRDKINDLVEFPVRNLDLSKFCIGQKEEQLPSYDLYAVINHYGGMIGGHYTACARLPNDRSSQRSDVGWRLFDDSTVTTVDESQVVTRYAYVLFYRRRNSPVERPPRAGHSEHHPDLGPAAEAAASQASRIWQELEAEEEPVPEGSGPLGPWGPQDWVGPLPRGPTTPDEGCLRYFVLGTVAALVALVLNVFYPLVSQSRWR
Briefly: Inhibition of C-terminal 6-His tagged USP19 (unknown origin) (1 to 1290 residues) using Ub-Rh110MP as substrate by fluorescence based assay.

The target of test [3] is Ubiquitin carboxyl-terminal hydrolase 7 (Homo sapiens, UniProt Q93009). Put plainly: Inhibition of full length His-tagged human recombinant USP7.
Chain of Ubiquitin carboxyl-terminal hydrolase 7 (Q93009 whole entry): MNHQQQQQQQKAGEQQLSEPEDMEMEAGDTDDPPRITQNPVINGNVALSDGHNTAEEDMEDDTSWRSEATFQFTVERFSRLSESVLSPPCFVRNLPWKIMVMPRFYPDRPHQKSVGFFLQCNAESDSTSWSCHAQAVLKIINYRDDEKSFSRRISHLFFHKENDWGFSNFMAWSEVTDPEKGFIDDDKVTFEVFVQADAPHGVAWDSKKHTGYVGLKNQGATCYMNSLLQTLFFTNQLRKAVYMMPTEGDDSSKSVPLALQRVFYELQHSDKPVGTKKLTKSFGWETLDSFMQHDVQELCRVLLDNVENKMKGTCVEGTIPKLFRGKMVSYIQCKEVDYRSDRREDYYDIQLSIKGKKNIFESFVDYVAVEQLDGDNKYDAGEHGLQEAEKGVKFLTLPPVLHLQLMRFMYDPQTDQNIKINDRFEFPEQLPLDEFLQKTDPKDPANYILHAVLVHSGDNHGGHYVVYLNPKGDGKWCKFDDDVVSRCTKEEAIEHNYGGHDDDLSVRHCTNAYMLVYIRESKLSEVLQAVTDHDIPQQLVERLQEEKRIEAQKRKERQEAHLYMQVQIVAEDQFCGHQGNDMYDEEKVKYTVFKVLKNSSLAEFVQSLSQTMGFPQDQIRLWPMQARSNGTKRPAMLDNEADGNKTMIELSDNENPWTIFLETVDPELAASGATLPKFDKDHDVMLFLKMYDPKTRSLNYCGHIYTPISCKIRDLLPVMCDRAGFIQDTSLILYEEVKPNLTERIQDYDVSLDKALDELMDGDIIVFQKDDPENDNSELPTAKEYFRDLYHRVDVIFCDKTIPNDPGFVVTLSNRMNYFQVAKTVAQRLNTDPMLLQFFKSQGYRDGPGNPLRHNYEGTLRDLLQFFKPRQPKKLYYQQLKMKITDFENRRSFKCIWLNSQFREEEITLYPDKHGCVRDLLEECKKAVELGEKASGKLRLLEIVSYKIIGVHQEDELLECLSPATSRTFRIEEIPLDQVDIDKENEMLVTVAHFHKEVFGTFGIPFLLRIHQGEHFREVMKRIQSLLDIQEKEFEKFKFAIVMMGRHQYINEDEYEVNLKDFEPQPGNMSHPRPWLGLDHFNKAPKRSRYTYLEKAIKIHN
The target in test [4] is T4, Ubiquitin carboxyl-terminal hydrolase isozyme L1 (Homo sapiens, UniProt P09936).
T4 sequence (P09936 whole entry): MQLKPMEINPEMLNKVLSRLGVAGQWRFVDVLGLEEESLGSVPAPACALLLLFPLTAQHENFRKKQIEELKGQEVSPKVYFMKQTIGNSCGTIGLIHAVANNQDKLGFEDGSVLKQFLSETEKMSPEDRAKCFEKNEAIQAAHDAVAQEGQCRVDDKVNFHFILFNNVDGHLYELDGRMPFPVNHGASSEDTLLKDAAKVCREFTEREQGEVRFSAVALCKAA
Put plainly: Inhibition of human UCH-L1.

Test [5] has as its target T4, Ubiquitin carboxyl-terminal hydrolase isozyme L1. Put plainly: Inhibition of His-tagged UCH-L1 (unknown origin) expressed in Escherichia coli BL21 (DE3) by fluorescence based analysis.
Test [6] has the same target. Put plainly: Inhibition of recombinant wild type UCH-L1 (unknown origin) by fluorescence based analysis.

Structures are written as SMILES.

Broadly, the IC50 is the point on the concentration scale where inhibition reaches its midpoint. Regarding `C=CC(=O)N1C/C(=C\c2ccc([N+](=O)[O-])cc2)C(=O)/C(=C/c2ccc([N+](=O)[O-])cc2)C1`, the IC50 against Caspase-3 came out at 1050 nM.

With `OCCNCc1cc(Br)ccc1OCc1ccccc1`, in test [1], the midpoint of inhibition, the IC50, lay at 29600 nM.

`Cc1ccc(S(=O)(=O)Nc2cc(C(F)(F)F)ccc2C(=O)Nc2nc(-c3ccccc3)cs2)cc1`: the IC50 in the test on HCT-116 was found to be 1100 nM.

Take `O=C1c2ccccc2C(=O)c2oc(-c3ccc(F)cc3)nc21`: the IC50 in test [2] is 880 nM.

`O=C1c2ccccc2C(=O)c2oc(-c3ccccc3)nc21` came in with an IC50 in test [2] of 544 nM.

The molecule `C=CC(=O)N1CC/C(=C\c2ccc(F)c([N+](=O)[O-])c2)C(=O)/C(=C/c2ccc(F)c([N+](=O)[O-])c2)C1` gave an IC50 on Caspase-3 of 580 nM.

As for `O=C(CCc1ccccc1)N1CCC(O)(Cn2cnc3cc(Cl)ccc3c2=O)CC1`, in test [3], the IC50 is 193 nM.

`CCc1ccc(S(=O)(=O)Nc2ccc(-c3ccc(NS(=O)(=O)c4ccc(CC)cc4)cc3)cc2)cc1` showed an IC50 in test [4] of 15000 nM.

`COC(=O)CC[C@H](NC(=O)[C@H](C)NC[C@@H](NC(=O)OCc1ccccc1)C(C)C)C(=O)CF` came in with an IC50 in test [5] of 7700 nM.

As to `N#CN1CCC[C@H]1C(=O)N1CCc2c(-c3cn[nH]c3C(F)(F)F)cccc21`, the IC50 in test [6] turned out to be 670 nM.
